Source: ChEMBL document CHEMBL5352492, “Application of deep generative model for design of Pyrrolo[2,3-d] pyrimidine derivatives as new selective TANK binding kinase 1 (TBK1) inhibitors” (Eur J Med Chem, 2023)
Active and inactive are the calls of the source. The rule behind the calls is not given here.

Columns and labels:
[1] = molecular target: T1, Serine/threonine-protein kinase TBK1 (Homo sapiens) (UniProt Q9UHD2); experiment: Inhibition of TBK1 (unknown origin) incubated at 1000 nM for 1 hr in presence of ATP by FRET based Z'-Lyte assay relative to control
T1 sequence (whole entry): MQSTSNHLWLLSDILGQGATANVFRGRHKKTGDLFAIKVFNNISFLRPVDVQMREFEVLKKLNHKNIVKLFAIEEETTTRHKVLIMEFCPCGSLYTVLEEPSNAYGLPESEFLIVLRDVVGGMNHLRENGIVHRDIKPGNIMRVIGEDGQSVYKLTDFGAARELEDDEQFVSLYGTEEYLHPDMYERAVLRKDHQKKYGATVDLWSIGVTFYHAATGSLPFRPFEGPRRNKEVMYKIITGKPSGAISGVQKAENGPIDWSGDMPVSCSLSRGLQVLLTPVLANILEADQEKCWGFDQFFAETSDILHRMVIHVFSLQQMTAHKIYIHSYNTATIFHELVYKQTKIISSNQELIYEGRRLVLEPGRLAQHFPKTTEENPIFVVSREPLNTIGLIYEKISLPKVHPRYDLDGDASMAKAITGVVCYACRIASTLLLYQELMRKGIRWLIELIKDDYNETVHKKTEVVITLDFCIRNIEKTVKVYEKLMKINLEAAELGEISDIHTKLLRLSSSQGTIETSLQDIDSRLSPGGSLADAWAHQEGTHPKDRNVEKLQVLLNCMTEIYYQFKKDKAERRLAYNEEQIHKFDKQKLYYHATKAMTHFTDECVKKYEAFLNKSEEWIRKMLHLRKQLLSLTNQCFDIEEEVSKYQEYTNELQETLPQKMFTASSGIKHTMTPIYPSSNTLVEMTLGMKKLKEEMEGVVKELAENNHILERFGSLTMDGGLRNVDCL

[2] = molecular target: T1, Serine/threonine-protein kinase TBK1 (Homo sapiens); experiment: Inhibition of TBK1 (unknown origin) incubated at 10 nM for 1 hr in presence of ATP by FRET based Z'-Lyte assay relative to control
[3] = molecular target: T1, Serine/threonine-protein kinase TBK1 (Homo sapiens); experiment: Inhibition of TBK1 (unknown origin) incubated at 100 nM for 1 hr in presence of ATP by FRET based Z'-Lyte assay relative to control
RAW264.7 [4] = experiment: Inhibition of LPS-induced cxcl10 in mouse RAW264.7 cells treated at 1 uM for 2 hrs RTq-PCR analysis; format: functional, cell-based
THP1-Blue ISG [5] = experiment: Inhibition of LPS-induced ifn-beta in human THP1-Blue ISG cells treated at 1 uM for 2 hrs RTq-PCR analysis; format: functional, cell-based
RAW264.7 [6] = experiment: Inhibition of LPS-induced ifn-beta in mouse RAW264.7 cells treated at 1 uM for 2 hrs RTq-PCR analysis; format: functional, cell-based
THP1-Blue ISG [7] = experiment: Inhibition of LPS-induced cxcl10 in human THP1-Blue ISG cells treated at 1 uM for 2 hrs RTq-PCR analysis; format: functional, cell-based

| inhibition [1] [%] | inhibition [2] [%] | inhibition [3] [%] | SMILES | inhibition (RAW264.7 [4]) | inhibition (THP1-Blue ISG [5]) | inhibition (RAW264.7 [6]) | inhibition (THP1-Blue ISG [7]) |
| --- | --- | --- | --- | --- | --- | --- | --- |
| 25.5 | < 0 | < 0 | O=C(NCCCn1cnc2cnc(Nc3cccc(CN4CCOCC4)c3)nc21)C1CCC1 | – | – | – | – |
| 26.4 | < 0 | < 0 | N#Cc1cn(CCCNC(=O)C2CCC2)c2nc(Nc3cccc(CN4CCOCC4)c3)ncc12 | – | – | – | – |
| < 0 | < 0 | < 0 | O=C(C1CCC1)N1CCC(n2ccc3cnc(Nc4cccc(CN5CCOCC5)c4)nc32)CC1 | – | – | – | – |
| 91 | 9.6 | 55.8 | O=C(NCCCn1cc(Cl)c2cnc(Nc3cccc(CN4CCOCC4)c3)nc21)C1CCC1 | – | – | – | – |
| < 0 | < 0 | < 0 | O=C(NCCCn1cc(C2CC2)c2cnc(Nc3cccc(CN4CCOCC4)c3)nc21)C1CCC1 | – | – | – | – |
| < 0 | < 0 | < 0 | O=C(C1CCC1)N1CCC(n2ccc3cnc(Nc4cccc(CN5CCOCC5)c4)nc32)C1 (stereo unspecified) | – | – | – | – |
| 84.4 | 1.33 | 37.1 | O=C(NCCCn1cc(Br)c2cnc(Nc3cccc(CN4CCOCC4)c3)nc21)C1CCC1 | – | – | – | – |
| 29 | < 0 | < 0 | O=C(NCCCn1ncc2cnc(Nc3cccc(CN4CCOCC4)c3)nc21)C1CCC1 | – | – | – | – |
| 1.8 | < 0 | < 0 | O=C(Nc1ccc(-n2ccc3cnc(Nc4cccc(CN5CCOCC5)c4)nc32)nc1)C1CCC1 | – | – | – | – |
| – | – | – | O=C(NCCCNc1nc(Nc2cccc(CN3CCOCC3)c2)ncc1C1CC1)C1CCC1 | Active | Active | Active | Active |
